How the values were obtained:
[1] = tested on: AU565 human breast cancer cells; experiment: Combination study (MTT), AU565 breast cancer cells, Example 6; assay type: cell-based; details: 6 days, #3 at 2%, #5 at 4%, #6 at 12.5%, FIG. 4
Source text: To determine if a combination of antimicrobial agents plus anti-hibernation agents would act synergistically to inhibit cancer, we carried out another study with the human breast cancer cell line AU565 in vitro. We used solution #3 as described above, which included isoniazid (INH), rifampin, ethambutol, minocycline, metronidazole, acyclovir and telithromycin at a 2% concentration of the previous mixture used in Example 5. This was to decrease the cell growth inhibition to ease interpretation of the results. We combined #3 with #6 (curcumin) and #3 with #5 (luteolin) to investigate the synergistic potential of these combinations using the following procedure. […] AU565 human breast cancer cells were routinely maintained in RPMI-1640 medium supplemented with 10% fetal bovine serum, 2 mM sodium pyruvate, and 4.2 g/L glucose. The cells were cultured at 37° C. in an atmosphere of 95% air/5% CO2 and 100% humidity. When cells reached 80% confluence, they were harvested using 0.25% trypsin/EDTA solution. The harvested cells were re-suspended in appropriate medium and reseeded in 96-well plate at a density of 3,000 cells/well/200 μl. Cells were allowed to attach for 24 h, then various concentrations of the test compositions were added to each appropriate well. […] At the end of 6 days, viable cells were measured by MTT assay as described above in Example 2. […]

[2] = cited from earlier work

Structure (SMILES)	percent inhibition of tumor cell growth [1] [%]	half life [2] [min]
O=c1cc(-c2ccc(O)c(O)c2)oc2cc(O)cc(O)c12 [Sample #5, Luteolin]	10	–
O=C1O[C@H]([C@@H](O)CO)C(O)=C1O [Ascorbic acid]	–	30
COc1cc(/C=C/C(=O)CC(=O)/C=C/c2ccc(O)c(OC)c2)ccc1O [Sample #6, Curcumin]	9	–
